{"source": "patent US9271916B2", "about": "“Composition for reducing skin wrinkles including PDE5 inhibitor” (SK Chemicals Co., Ltd., priority 2011, dated 2016)", "key": {"[1]": {"system": "type I procollagen production in normal human dermal fibroblasts (NHDF, cell line 7F3802)", "assay": "Procollagen type I production in normal human dermal fibroblasts", "type": "cell-based", "conditions": "48 hours, negative control 100.0±0.0%, p<0.01", "procedure": "Effects by mirodenafil hydrochloride, test compound, on production of type I collagen was evaluated with normal human dermal fibroblasts.\nCell line 7F3802 was used as a normal human dermal fibroblast (hereinafter, ‘NHDF’). Frozen NHDF was thawed and subcultured, and passages 5 to 7 were used for this test.\nL-Ascorbic acid (Sigma-Aldrich Co., U.S.A.) was used as a positive control because there are lots of comparative experimental data using l-ascorbic acid. L-Ascorbic acid has been reported to be effective in acceleration of collagen production when evaluating with fibroblasts. DMSO (Dimethyl sulfoxide) was used as a diluent.\n(§1) 0.01 mL of aliquot was taken from 10 mM of mirodenafil hydrochloride stock solution, and 9.99 mL of DMSO was added to the aliquot to make 10,000 nM of sample. This sample was additionally diluted to 1,000 nM of concentration right before being used. 10,000 nM and 1,000 nM of solutions were diluted 100 times with serum-free medium to […], right before being applied.\nFor making a positive control, 20,000 μM (3.522 mg/mL) of 1-ascorbic acid was prepared by dissolving it with serum-free medium, and then the solution was diluted to 200 μM.\nTwo cell culture media were used in this experiment. Complete medium consisting of FBS (fetal bovine serum), Penicillin-Streptomycin (10,000 U/mL of penicillin and 10,000 ug of streptomycin) and DMEM/F12 (dulbecco's modified eagle's medium/F12) was used during subculture before test compound was applied, and then serum-free medium consisting of Penicillin-Streptomycin and DMEM (dulbecco's modified eagle's medium) was used.\nPre-treatment (cell culture and treatment of test compound) was performed as follows: After culturing in complete medium, 400 μl of NHDF was seeded into 48-well plates (1×10^5 cells/400 μl/well), and cultured at a condition of 37° C. and 5% CO2 incubator (MCO-20AIC, Sanyo, Japan) for 24 hours. After culture was completed, the remaining media were removed from each well. 500 μl of D-PBS (D-phosphate buffered saline) was added to each well to wash wells. […]"}, "[2]": {"system": "UVB-induced skin wrinkles", "assay": "Wrinkle reduction in UVB-irradiated hairless mice", "type": "in vivo", "conditions": "for Wrinkle reduction (skin photographs): 10 mM (about 5%), applied twice daily for 14 days after wrinkle induction", "procedure": "An examination was made as to whether the PDE5 inhibitors can substantially reduce skin wrinkles of animal models. Hairless mice, aged 7 weeks, were irradiated with UVB (290-320 nm, 312 nm) to induce wrinkles. The compound or the control was applied to each mouse and its influence on the induced wrinkles was evaluated. More specifically, the mice were irradiated with 60 mJ/cm^2 (1 minimal […] dose (MED)) for 3 days weekly during the first and second week after wrinkling, 120 mJ/cm^2 (2 MED) for 3 days during the third week after wrinkling, 180 mJ/cm^2 (3 MED) for 3 days during the fourth week after wrinkling, 240 mJ/cm^2 (4 MED) for 3 days weekly during the fifth to eighth week after wrinkling, and 240 mJ/cm^2 (4 MED) for 5 days weekly during the ninth to fifteenth week after wrinkling. During the sixteenth and seventeenth week after wrinkling, about 0.5 ml of squalene-OOH, an oxidation product of squalene by UV irradiation, was applied once using a brush to induce deeper wrinkles. Thereafter, the compound or the control was applied to each mouse twice daily for 14 days."}, "[3]": {"system": "matrix metalloproteinase-1 (MMP-1) expression in normal human dermal fibroblasts", "assay": "Inhibition of MMP-1 expression in normal human dermal fibroblasts", "type": "cell-based", "conditions": "NHDF, negative control 189.7±10.9%, p<0.01", "procedure": "Effects by mirodenafil hydrochloride, test compound, on inhibition of matrix metalloproteinase-1 (MMP-1) expression was evaluated with normal human dermal fibroblasts.\n(−)Epigallocatechin gallate (EGCG) (Sigma-Aldrich Co., U.S.A.) was used as a positive control because there are lots of comparative experimental data using the EGCG. EGCG has been reported to be effective in inhibition of MMP-1 expression when evaluating with fibroblasts. DMSO (Dimethyl sulfoxide) was used as a diluent.\nas §1\nFor making a positive control, 10,000 μM (4.584 mg/mL) of EGCG was prepared by dissolving it with serum-free medium, and then the solution was diluted to 10 μM (0.0046 mg/mL).\nBCA protein assay kit (Lot No.: KK140637, Pierce Biotechnology Inc., USA) was used for total protein analysis, and matrix metalloproteinase-1 (MMP-1), human, biotrak ELISA system kit (Lot No.: 398061, GE Healthcare, UK) was used for MMP-1 analysis.\nThe contents of MMP-1 in wells to which negative control, test compound or positive control was added were divided by the content of total protein. The adjusted content of MMP-1 was used to calculate “Inhibition rate of MMP-1 expression” with the following equation. This test was repeated three times. Inhibition rate of MMP-1 expression (%)=A/B×100\nA: MMP-1 amount of sample or positive control\nB: MMP-1 amount of negative control\nThe other materials and methods which were not mentioned in detail were similar to those of Example 3."}}, "note": "Structures can show the parent of a compound that is named as a salt."}
{"compound": "O=C1O[C@H]([C@@H](O)CO)C(O)=C1O", "note": "[L-Ascorbic acid]", "values": [{"measurement": "Synthesis rate of procollagen type I", "setting": "[1]; 35.2 μg/mL (200 μM)", "value": "175.7±11.5", "unit": "%"}]}
{"compound": "CCCOc1ccc(S(=O)(=O)N2CCN(CCO)CC2)cc1-c1nc2c(CCC)cn(CC)c2c(=O)[nH]1.Cl.Cl", "note": "[mirodenafil 2HCl]", "values": [{"measurement": "Wrinkle reduction (skin photographs)", "setting": "[2]", "value": "Wrinkle reduction was observed"}]}
{"compound": "CCCOc1ccc(S(=O)(=O)N2CCN(CCO)CC2)cc1-c1nc2c(CCC)cn(CC)c2c(=O)[nH]1", "note": "[mirodenafil free base, mirodenafil]", "values": [{"measurement": "Wrinkle reduction (skin photographs)", "setting": "[2]", "value": "Wrinkle reduction was observed"}]}
{"compound": "CCCOc1ccc(S(=O)(=O)N2CCN(CCO)CC2)cc1-c1nc2c(CCC)cn(CC)c2c(=O)[nH]1", "note": "[mirodenafil hydrochloride]", "values": [{"measurement": "Synthesis rate of procollagen type I", "setting": "[1]; 10 nM", "value": "149.7±12.4", "unit": "%"}, {"measurement": "Synthesis rate of procollagen type I", "setting": "[1]; 100 nM", "value": "189.8±6.4", "unit": "%"}, {"measurement": "MMP-1 expression (% of control)", "setting": "[3]; 10 nM", "value": "115.8±9.1", "unit": "%"}, {"measurement": "MMP-1 expression (% of control)", "setting": "[3]; 100 nM", "value": "97.9±8.5", "unit": "%"}]}
{"compound": "CC1=C(/C=C/C(C)=C/C=C/C(C)=C/C(=O)O)C(C)(C)CCC1", "note": "[retinoic acid]", "values": [{"measurement": "Formation and peeling of cornified layers of the skin", "setting": "[2]; 0.05%, topical, twice then once daily", "value": "Cornified layers were formed and continuously peeled"}]}
{"compound": "(−)Epigallocatechin gallate [EGCG]", "values": [{"measurement": "MMP-1 expression (% of control)", "setting": "[3]; 0.0046 mg/mL (10 μM)", "value": "102.3±18.7", "unit": "%"}]}
